In US20160162632A1, “METHOD OF SCREENING REACTIONS OR BIOLOGICAL PATHWAYS INDUCED BY COMPOUND” (Samsung Electronics Co., Ltd., priority 2014, published 2016):

System: biochemical pathways with which genes with a change in expression level are associated
Assay: Selection among predicted reactions using differentially expressed genes (DEGs) by dapsone and DAVID pathway annotation
Format: cell-based
Settings: reaction included in the "arginine and prolyl metabolism" pathway from DEGs; FIG. 7
Source text: Genes that are differentially expressed (differentially expressed genes, DEGs) by dapsone were experimentally determined. Information about biochemical pathways to which the DEGs are involved was obtained by a functional annotation tool of bioinformatics resources (DAVID Bioinformatics Resources version 6.7 operated by the National Institute of Allergy and Infectious Diseases ([…]), Bethesda, Md.; see Huang D W, Sherman B T, Lempicki R A. “Systematic and integrative analysis of large gene lists using DAVID Bioinformatics Resources,” Nature Protoc. 2009; 4(1):44-57; Huang D W, Sherman B T, Lempicki R A. “Bioinformatics enrichment tools: paths toward the comprehensive functional analysis of large gene lists,” Nucleic Acids Res. 2009; 37(1):1-13).
The term “Term” refers to a pathway related to a gene list. The terms “Genes” and “Count” denotes the numbers of genes included in the corresponding terms. The length of the square in the column for “Genes” indicates the number of genes included in the corresponding terms. % refers to a ratio of genes included in the corresponding terms to genes input as DEGs of dapson. These pathways were identified in terms of whether each of the predicted reaction as described in Example 2.1. is included therein.

Nc1ccc(S(=O)(=O)c2ccc(N)cc2)cc1 [dapsone, 4,4′-diaminodiphenylsulfone]
enzyme reaction determined as induced in a cell by treatment: ATP:creatine N-phosphotransferase reaction
